This is an account of results in BindingDB's records for doi:10.7270/Q2TX3CTT (Broad Institute, 2010).

Sequence of Glycogen synthase kinase-3 beta (P49841 whole entry): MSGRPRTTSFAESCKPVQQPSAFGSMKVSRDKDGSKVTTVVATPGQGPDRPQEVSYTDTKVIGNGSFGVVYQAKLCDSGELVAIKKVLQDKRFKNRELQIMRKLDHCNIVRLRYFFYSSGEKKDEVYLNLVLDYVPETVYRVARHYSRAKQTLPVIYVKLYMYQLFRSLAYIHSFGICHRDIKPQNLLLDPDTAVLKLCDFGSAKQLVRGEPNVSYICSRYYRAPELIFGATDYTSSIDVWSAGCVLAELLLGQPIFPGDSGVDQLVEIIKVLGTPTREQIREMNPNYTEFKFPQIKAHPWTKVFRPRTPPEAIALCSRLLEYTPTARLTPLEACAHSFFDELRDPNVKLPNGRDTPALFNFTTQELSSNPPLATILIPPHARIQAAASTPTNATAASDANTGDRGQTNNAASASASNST

This experiment has as its target Glycogen synthase kinase-3 beta (Homo sapiens, UniProt P49841). The experiment is described as follows: GSK3beta kinase inhibitor potency, dose response, biochemical, luminescence, cell-free homogeneous, retest (AID 434954).
Usually EC50 stands for the concentration needed to bring the measured effect to its halfway point. A low value points to higher potency in that assay. On to `CN(CC(=O)OCC(=O)Nc1ccccc1)S(=O)(=O)c1ccc(Cl)cc1` [(2-anilino-2-oxoethyl) 2-[(4-chlorophenyl)sulfonyl-methylamino]acetate], for which the EC50 is greater than 300 µM.
`CCNc1ccc(S(=O)(=O)N(C)C)cc1NCC(=O)Nc1ccc(Br)cc1F` [N-(4-bromanyl-2-fluoranyl-phenyl)-2-[[5-(dimethylsulfamoyl)-2-(ethylamino)phenyl]amino]ethanamide] registered an EC50 greater than 300 µM.
The compound `CCn1c(C=CN(C(C)=O)c2ccccc2)[n+](CC)c2cc(Cl)ccc21` [N-[(E)-2-(5-chloro-1,3-diethylbenzimidazol-1-ium-2-yl)ethenyl]-N-phenylacetamide;iodide] gave a concentration for a half-maximal effect (EC50) greater than 300 µM.
`CC1CCN(C(=O)CSc2nc(N)c3c4c(sc3n2)CN(C)CC4)CC1` [2-[(4-azanyl-7-methyl-6,8-dihydro-5H-pyrido[4,5]thieno[1,2-c]pyrimidin-2-yl)sulfanyl]-1-(4-methylpiperidin-1-yl)ethanone]: the EC50 was greater than 300 µM.
For `CC(C)(C)Sc1ccc(CN=O)cc1[N+](=O)[O-]` [SMR000335018] the value was 23.6 µM; for `O=C(CC1NCCNC1=O)Nc1cc(Cl)cc(Cl)c1` (stereo not drawn) [N-(3,5-dichlorophenyl)-2-(3-oxopiperazin-2-yl)acetamide], greater than 300 µM; for `C=CCNC(=S)NN=Cc1cn(-c2ccccc2)nc1-c1ccc(OC)cc1` [SMR000212115], 42.5 µM.
The figure for `COc1ccccc1Nc1nc(NCCC(C)C)nc(N)c1[N+](=O)[O-]` [N'-(2-Methoxy-phenyl)-N-(3-methyl-butyl)-5-nitro-pyrimidine-2,4,6-triamine] is 0.584 µM; for `O=c1oc(-c2cccs2)nc2sc3c(c12)CCCCC3` it is greater than 300 µM.
The figure for `CCc1ccc(Oc2ncnc(N)c2[N+](=O)[O-])cc1` [6-(4-ethylphenoxy)-5-nitro-4-pyrimidinamine] is greater than 300 µM; for `COc1cccc(C2c3c([nH]n(-c4ccccc4)c3=O)N=C3CCCC(=O)C32)c1` (stereo not drawn) [3-hydroxy-4-(3-methoxyphenyl)-2-phenyl-2,4,6,7,8,9-hexahydro-5H-pyrazolo[3,4-b]quinolin-5-one] it is greater than 300 µM.
`COc1ccc(OC)c(Nc2nc(N(C)c3ccccc3)nc(N)c2[N+](=O)[O-])c1` [MLS001215240] had an EC50 greater than 300 µM.
In turn, `COc1cccc2cc(C(=O)CS(=O)(=O)c3ccc(Cl)cc3)c(=O)oc12` [3-[2-(4-chlorophenyl)sulfonylethanoyl]-8-methoxy-chromen-2-one] registered an EC50 greater than 300 µM.
For the compound `O=C(NCC(c1ccco1)N1CCc2ccccc21)c1c(F)cccc1F` (stereo not drawn) [N-[2-(2,3-dihydroindol-1-yl)-2-(furan-2-yl)ethyl]-2,6-bis(fluoranyl)benzamide], the EC50 is greater than 300 µM.
For `CCNc1nc(N)c(C(=O)c2ccc(Cl)s2)s1` [[4-amino-2-(ethylamino)-1,3-thiazol-5-yl]-(5-chlorothiophen-2-yl)methanone] the value was 0.174 µM; for `Cc1ccc(C2c3c(n[nH]c3C)N=C3CC(C)(C)CC(=O)C32)cc1` (stereo not drawn) [3,7,7-trimethyl-4-(4-methylphenyl)-2,4,6,8-tetrahydro-1H-pyrazolo[3,4-b]quinolin-5-one], 9.26 µM; for `COCCn1c(SCC(=O)NCc2ccccc2)nc2ccccc21` [MLS001171409], greater than 300 µM.
The figure for `CN(C)Cc1c(C(=O)NN=Cc2ccoc2)nnn1-c1nonc1N` [1-(4-amino-1,2,5-oxadiazol-3-yl)-5-[(dimethylamino)methyl]-N-(3-furanylmethylideneamino)-4-triazolecarboxamide] is 2.18 µM.
The figure for `COc1ccc2cc(C(=O)CS(=O)(=O)c3ccccc3)c(=O)oc2c1` [3-[2-(benzenesulfonyl)acetyl]-7-methoxychromen-2-one] is greater than 300 µM; for `CCN(CC)CCNc1nc(SC)nc2sc3c(c12)CCN(C)C3` it is greater than 300 µM.
Regarding `CCCC(=O)Nc1nn(CC(C)C)c2nc3cc(C)ccc3cc12` [SMR000540561], the EC50 is greater than 300 µM.
The figure for `Cc1[nH][nH]c(=O)c1N=Nc1ccccc1C#N` [2-[2-(3-methyl-5-oxopyrazol-4-yl)hydrazinyl]benzonitrile] is 15.9 µM; for `CC(=O)N1CCC(=O)Nc2ccc([N+](=O)[O-])cc21` [MLS000728217] it is greater than 300 µM.
The figure for `Fc1ccccc1Cn1c2[n+](c3ccc(C(F)(F)F)cc31)CCCCC2` is greater than 300 µM; for `Nc1nc(Nc2cccc(Cl)c2)nc(NCCO)c1[N+](=O)[O-]` it is 1.73 µM.
For `CS(=O)(=O)N(Cc1ccccc1)c1ccc(C(=O)Nc2ccccc2Sc2ccccc2)cc1` [4-[methylsulfonyl-(phenylmethyl)amino]-N-(2-phenylsulfanylphenyl)benzamide] the value was greater than 300 µM.
`CCOC(=O)CSc1ccc2nnc(-c3ccccc3)n2n1` [ethyl 2-[(3-phenyl-[1,2,4]triazolo[4,3-b]pyridazin-6-yl)sulfanyl]acetate] came in with a 50% effective concentration (EC50) of 44.6 µM.
For `COCCCNc1nc(N)c([N+](=O)[O-])c(NCc2ccccc2)n1` the value was 5.95 µM; for `CCCn1nc(NC(=O)C(C)C)c2cc3cc(OC)ccc3nc21` [N-(6-methoxy-1-propylpyrazolo[3,4-b]quinolin-3-yl)-2-methylpropanamide], greater than 300 µM; for `COc1ccc(CN=Nc2ccc([N+](=O)[O-])cc2)cc1O` [MLS001198430], greater than 300 µM.
For `CN(C)c1ccc(C(=O)NN2C(=O)c3ccccc3C2=O)cc1` [4-(dimethylamino)-N-(1,3-dioxo-2-isoindolyl)benzamide] the value was greater than 300 µM.
For the compound `COc1ccc(Nc2nc(N)c(C(=O)c3ccc(OC)cc3)s2)cc1` [{4-amino-2-[(4-methoxyphenyl)amino]-1,3-thiazol-5-yl}(4-methoxyphenyl)methanone], the EC50 is 0.313 µM.
Turning to `COc1ccc(-c2c(N)nnc3c2[nH]c2ccccc23)cc1OC`, the EC50 is greater than 300 µM.
In turn, `Cc1ccccc1N(CC(=O)NN=Cc1cc(Br)c(C)o1)S(C)(=O)=O` [N-[(4-bromo-5-methylfuran-2-yl)methylideneamino]-2-(2-methyl-N-methylsulfonylanilino)acetamide] yielded a concentration for a half-maximal effect (EC50) greater than 300 µM.
The figure for `COc1cccc(C(CC(=O)NCc2ccco2)NS(=O)(=O)c2ccc(C)cc2)c1OC` (stereo not drawn) [3-(2,3-dimethoxyphenyl)-N-(2-furylmethyl)-3-{[(4-methylphenyl)sulfonyl]amino}propanamide] is greater than 300 µM; for `O=c1c(-c2ccccc2)c(-c2ccccc2)oc2cc(O)cc(O)c12` it is 24.6 µM; for `O=C(NCCO)Nc1ccc2nsnc2c1` [MLS000708760] it is greater than 300 µM.
Take `COc1ccc(C2c3c(n[nH]c3C)N=C3CCCC(=O)C32)cc1OC` (stereo not drawn) [SMR000353889]: the EC50 is greater than 300 µM.
The figure for `O=C(NCc1ccccc1)c1ccc2nccnc2c1` [N-(phenylmethyl)-6-quinoxalinecarboxamide] is greater than 300 µM; for `Nc1nc(Nc2cccc(Cl)c2)nc(NCc2ccco2)c1[N+](=O)[O-]` [MLS000333252] it is 6.01 µM; for `Cc1csc(NC(=O)CN2C(=O)c3ccccc3C2=O)c1C(N)=O` [2-[[2-(1,3-dioxo-2-isoindolyl)-1-oxoethyl]amino]-4-methyl-3-thiophenecarboxamide] it is greater than 300 µM.
`CCOc1cc(C)cc2oc(=O)cc(-c3ccccc3)c12` [SMR000116517] came in with an EC50 greater than 300 µM.
The figure for `Cc1ccc(S(=O)(=O)N2CCN(CC(=O)NN=Cc3ccco3)CC2)cc1` [MLS000590873] is greater than 300 µM.
